# Experimental data published in patent publication US20190169181A1, “FUMAGILLOL COMPOUNDS AND METHODS OF MAKING AND USING SAME” (Zafgen, Inc., priority 2016, published 2019).
# Key:
# [1] = system: rat DIO model (Sprague Dawley rats on 45% High Fat diet); assay: 11 day rat DIO model, weight loss vs. vehicle; assay type: in vivo; settings: for Rat @ 0.3 mpk sc (%) weight loss vs. vehicle: 0.3 mpk sc once a day for 11 days
# Text: The objective of this study design is to investigate the efficacy of disclosed compounds in an 11 day rat DIO model used to screen compounds for pharmacologic efficacy on endpoints related to obesity and metabolism. Effects on body weight, food intake, hematology and blood chemistries were the primary readouts of this study design. Male Sprague Dawley rats, approximately 8 weeks of age, were ordered from a certified vendor and housed on irradiated corncob bedding in micro-isolator cages, on a 12-hour light-dark cycle (0700-1900) at 68-74° F. and 30-70% humidity. Rats were fed Research Diets D12451 (45% High Fat) and provided water ad libitum. Rats were received and housed in the facility for at least two or three weeks prior to start of test article administration. On Day −4 or −3, rats were randomized into study groups based on body weight and body weights were continued to be recorded daily for the duration of the study. Daily food intake was assessed starting on Study Day −2 by weighing the hopper including the food to avoid loss of food in transfer.
# Compounds were formulated into a 100% DMSO stock (at 9 mg/mL) prior to the start, and further diluted into the target working concentration using the vehicle of 10% DMSO in water. Prior to test article administration, starting on Day −3 a dosing acclimation occurred with all animals receiving a subcutaneous injection of vehicle (10% DMSO) only for 3 days. Starting on Day 1, test compounds or vehicle were administered based on individual body weight, subcutaneously, once a day for 11 days. All animals were sacrificed on Day 11, approximately 2 hours following the final dosing on Day 11. After sacrifice, whole blood was collected and analyzed for hematology and blood chemistry parameters.
# Compounds were tested for weight loss vs. vehicle at 0.3 and 1.0 mpk sc (mg per kg animal weight delivered subcutaneously), and the results are shown in Table 2 below.
# [2] = system: Diet Induced Obese (DIO) C57BL/6 mice; assay: 10 day DIO mouse model, weight loss vs. vehicle; assay type: in vivo; settings: 240 h; for inhibition in vivo at 0.3 mg/kg: 0.3 mpk sc once a day for 10 days; for inhibition in vivo at 1 mg/kg: 1.0 mpk sc once a day for 10 days
# Procedure, shortened: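 Male DIO C57BL/6 mice on 60% fat diet, vehicle-acclimated 3 days, then given compound at 0.3 or 1.0 mg/kg SC (10% DMSO in water) once daily for 10 days. Body weight and food intake recorded daily; weight loss versus vehicle, with hematology and blood chemistry on Day 11.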
# recombinant human MetAP2 = target: T1, recombinant human MetAP2 (Homo sapiens, UniProt P50579); assay: Recombinant human MetAP2 enzyme inhibition assay (MAS peptide / amino acid oxidase / Amplex Ultrared readout); assay type: biochemical; settings: Flag tagged human recombinant MetAP2, 25 minutes at 25° C.
# T1 construct: Flag; made in house
# T1 sequence (P50579 whole entry): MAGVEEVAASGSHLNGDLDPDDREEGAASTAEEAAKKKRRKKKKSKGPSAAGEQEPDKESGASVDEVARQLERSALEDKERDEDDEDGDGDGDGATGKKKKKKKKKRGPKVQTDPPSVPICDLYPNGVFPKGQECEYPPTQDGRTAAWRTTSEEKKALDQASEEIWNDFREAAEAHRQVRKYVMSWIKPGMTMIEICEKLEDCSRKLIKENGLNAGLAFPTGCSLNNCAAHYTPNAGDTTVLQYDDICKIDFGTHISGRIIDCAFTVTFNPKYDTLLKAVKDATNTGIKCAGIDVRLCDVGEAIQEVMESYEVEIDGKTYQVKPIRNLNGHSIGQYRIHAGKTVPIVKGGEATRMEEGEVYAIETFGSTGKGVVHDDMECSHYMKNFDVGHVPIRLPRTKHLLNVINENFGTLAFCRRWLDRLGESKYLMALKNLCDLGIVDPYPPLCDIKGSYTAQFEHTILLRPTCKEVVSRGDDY
IC50 (recombinant human MetAP2) [µM],Compound,Rat @ 0.3 mpk sc (%) weight loss vs. vehicle [1] [%],inhibition in vivo at 0.3 mg/kg [2] [%],inhibition in vivo at 1 mg/kg [2] [%],Rat @ 1.0 mpk sc (%) weight loss vs. vehicle ([1]; 1.0 mpk sc once a day for 11 days) [%]
< 0.05,"CO[C@@H]1[C@H](OC(=O)N[C@@H](C)Cc2noc(=O)[nH]2)CC[C@]2(CO2)[C@H]1[C@@]1(C)O[C@@H]1CC=C(C)C [Example 28, (3R,4S,5S,6R)-5-methoxy-4-((2R,3R)-2-methyl-3-(3-methylbut-2-en-1-yl)oxiran-2-yl)-1-oxaspiro[2.5]octan-6-yl ((S)-1-(5-oxo-4,5-dihydro-1,2,4-oxadiazol-3-yl)propan-2-yl)carbamate]",−1.4,-2.3,4.2,
0.05 to 0.5,"CO[C@@H]1[C@H](OC(=O)N[C@H](Cc2nc(=O)o[nH]2)C(C)C)CC[C@]2(CO2)[C@H]1[C@@]1(C)O[C@@H]1CC=C(C)C [Example 30, (3R,4S,5S,6R)-5-methoxy-4-((2R,3R)-2-methyl-3-(3-methylbut-2-enyl)oxiran-2-yl)-1-oxaspiro[2.5]octan-6-yl (R)-3-methyl-1-(5-oxo-4,5-dihydro-1,2,4-oxadiazol-3-yl)butan-2-ylcarbamate]",0.7,1.4,14.1,−0.4
0.05 to 0.5,"CO[C@@H]1[C@H](OC(=O)NCC(C)(C)c2cn(C[C@H]3CCCN3C)cn2)CC[C@]2(CO2)[C@H]1[C@@]1(C)O[C@@H]1CC=C(C)C [Example 38, (3R,4S,5S,6R)-5-methoxy-4-((2R,3R)-2-methyl-3-(3-methylbut-2-en-1-yl)oxiran-2-yl)-1-oxaspiro[2.5]octan-6-yl (2-methyl-2-(1-(((R)-1-methylpyrrolidin-2-yl)methyl)-1H-imidazol-4-yl)propyl)carbamate]",−1.7,5,5.5,
